Reference: patent US20200032249A1, “LABELING, ISOLATION, & ANALYSIS OF RNA FROM RARE CELL POPULATIONS” (priority 2017, published 2020)

Key:
[1] = system: MDA231 cells expressing CD/UPRT in mouse lungs; test: signal-to-noise ratio of Flura-tagging and TU-tagging in vivo, lung colonization xenograft, RT-PCR; details: 250 mg/kg, 12 h post injection
Protocol: (§1) FIG. 3 a-g. Flura-tagging of mRNA in vivo. FIG. 3a—Schematic diagram of lung colonization xenograft assay used for evaluation of Flura-tagging/Flura-seq. Athymic mice were injected through the tail vein with 50,000 MDA231 cells expressing CD/UPRT and GFP-luciferase. Upon the development of detectable bioluminescent lung metastases (4 weeks), mice were treated with doxycycline to induce CD/UPRT expression and injected with 5-FC. Lungs were harvested, and Flura-tagged mRNAs were immunopurified. FIG. 3b—Comparison of signal-to-noise ratio of Flura-tagging and TU-tagging in vivo. Mice were injected with either 5-FC or TU, the Flura-tagged or TU-tagged mRNAs were purified 12 h post injection, and the relative fold enrichment of representative human housekeeping genes relative to representative murine housekeeping genes (mHPRT1, mLDH1, mPGK1 and mGAPDH), normalized to their corresponding unpurified inputs, were measured by RT-PCR (n=5, ±S.E.). FIG. 3c—Quantification of the number of human cells in the mouse lungs used for Flura-tagging. Half of the mouse lungs used for Flura-tagging in FIG. 3b was dissociated into single cells, and the number of RFP+ cells was quantified using flow cytometry. The total number of MDA231 cells per lung was estimated based on an assumption of 1.5×10^8 cells per mouse lung (20) (n=5). […] RNA reads were aligned to a hybrid genome containing the human and mouse genomes. […]

[2] = system: MDA231 cells expressing CD/UPRT in mouse lungs; test: Flura-seq of lung micrometastases, reads aligned to hybrid human-mouse genome; format: in vivo
Protocol: as §1

Nc1nc(=O)[nH]cc1F [5-FC, 5-fluorocytosine]
enrichment of human mRNAs compared to mouse mRNAs [1]: over 1000 fold
aligned reads mapped to human genome ([2]; mice treated for 4 h): approximately 53%
aligned reads mapped to human genome ([2]; mice treated for 12 h): 74%
